Data reported in patent US11643439B2, “Multi-target compound with anticoagulation and antiplatelet activity, preparation method therefor, and use thereof” (SHAANXI MICOT TECHNOLOGY LIMITED COMPANY, priority 2015, dated 2023).
Marks after values point to notes of the source that are not given here.

Assays:
[1] = test system: FeCl3-induced common carotid arterial thrombosis; experiment: FeCl3-induced common carotid arterial thrombosis in rats; assay type: in vivo, rat
Experimental: (§1) 160 Rats were randomly divided into groups, 5 to 10 rats per group.
(§2) According to the body weight in kilograms of the rats, the first dose of a drug was dissolved in 2 mL of physiological saline for single bolus injection. The maintaining dose of drug was dissolved in 9 ml of physiological saline, and placed in a double-channel micro-injection pump, which was dripped off within 90 minutes at a dripping speed of 0.1 ml/min. The sham operation group was administered with the same volume of physiological saline.
(§3) The rats were fasted with free access to water overnight before the experiment.
After administration at a load dosage maintenance for 30 minutes, a filter paper with a 3 mm diameter and immersed with 35% FeCl3 solution was applied below the common carotid artery, below which a small piece of a plastic film (2.5 cm×2.0 cm) was placed to protect surrounding tissues. The body temperature was detected with a temperature probe in the distal end of the artery, and the time required from the beginning of stimulation to the point when the temperature decreased by 2.5 degrees was examined as the vascular occlusion time.
The time from the point when FeCl3 was placed to the point when the temperature of the artery indicated a decrease of 2.5° C. was the vascular occlusion time, which reflected the state of thrombus formation.

[2] = test system: blood coagulation function; experiment: APTT in rabbits, single intravenous administration; assay type: in vivo, rabbit; conditions: single iv 6.0 mg/kg
Experimental: (§4) 1. Grouping and administration: 48 Rabbits were randomly divided into 6 groups, 8 rabbits per group. 1) Sham operation group (NS): Intravenous injection of the same volume of physiological saline; 2) positive control bivalirudin group (6 mg/kg); 3) positive control enoxaparin group (200 U/kg); 4) Low dose group of polypeptide 2 (3.0 mg/kg); 5) Medium dose group of polypeptide 2 (6.0 mg/kg); 6) High dose group of polypeptide 2 (12.0 mg/kg). Polypeptide 2 was administered by single intravenous administration. According to the body weight in kilograms of the rabbits, the sample was dissolved in 2 mL of physiological saline for single bolus injection. The sham operation group was administered with the same volume of physiological saline.
(§5) 3.2 Determination of blood coagulation function: Blood samples were taken and the blood function (PT, TT, APTT) was determined at 0 min before administration, at points of 5 min and 15 min after administration, using a platelet-aggregation coagulation factor analyzer. Blood samples were centrifuged at 3510 rpm for 8 min to obtain platelet poor plasma (PPP). Reagent reconstruction and preservation were performed according to the operation requirements of the kit. Immediately after each blood sample was placed into a test cup and then added with PT. TT and APTT reagents, the test was started. After the test was completed, results were recorded.

[3] = test system: FeCl3-induced inferior vena cava thrombosis; experiment: FeCl3-induced inferior vena cava thrombosis in rats; assay type: in vivo, rat
Experimental: as §1, §2, §3
15 minutes later, the filter paper was removed. And then, after observation for 45 minutes, the blood vessels and local tissues were rinsed with warm physiological saline, and the covered blood vessels were cut off. The thrombus which attached to the blood vessel walls was peeled off to be weighed on a tin foil for its wet weight, and then weighed overnight at room temperature for its dry weight. The administration was continued until the completion of the experiment.
After the experiment was completed, the segment of the blood vessels in which there had been thrombus formation was cut off, weighed for the wet weight, and then weighed overnight at room temperature for the dry weight of the thrombus. Thrombosis inhibitory rate was calculated.

platelet aggregation = experiment: Platelet aggregation in rabbits, single intravenous administration; assay type: in vivo, rabbit; conditions: single iv 6.0 mg/kg
Experimental: as §4
3.1 Platelet aggregation rate: 2.7 ml of blood was taken from the femoral vein, rapidly injected into a centrifuge tube containing 0.3 ml of 3.8% sodium citrate solution, and fully mixed well. The resulted blood samples were centrifuged at 810 rpm (100 g) for 8 min to obtain PRP, which was taken out and centrifuged at 3500 rpm (1863 g) for 8 min to obtain PPP, which was used to determine platelet aggregation.
Blood samples were taken at a point before administration (0 min), and at points of administration for 5 min and 15 min, respectively, to determine the platelet aggregation rate, which was used to calculate the inhibitory rate of platelet aggregation with a calculation equation as follows: […]

[4] = test system: blood coagulation function; experiment: PT in rabbits, single intravenous administration; assay type: in vivo, rabbit; conditions: single iv 6.0 mg/kg
Experimental: as §4, §5

[5] = test system: thrombin-induced pulmonary embolism; experiment: Thrombin-induced pulmonary embolism in mice; assay type: in vivo, mouse; conditions: thrombin 1500 u/kg, tail iv 8.0 mg/kg; for Mortality rate: within 15 min, 8 mg/kg
Experimental: Mice were randomly divided into 7 groups with 10 mice per group, in which group 1 was physiological saline group, group 2 was model control group, group 3 was positive control group of enoxaparin 0.5 mg/kg, group 4 was positive control group of bivalirudin 8 mg/kg, group 5 was low dose group of polypeptide 2 at 2.5 mg/kg, group 6 was medium dose group of polypeptide 2 at 5.0 mg/kg, and group 7 was high dose group of polypeptide 2 at 10.0 mg/kg. Except that physiological saline group and model control group were subjected to tail intravenous injection of 200 μl physiological saline, the other groups were given according to the doses, respectively. After 2 min, the mice in physiological saline group were administered with 100 μl physiological saline through tail intravenous injection and the other groups were each administered with 100 μl thrombin based on 1500 u/kg (80% to 90% of the lethal dose) through tail intravenous injection. The mice were observed after the administration for their death within 15 min.
(1) Recording mortality rate: the death status of mice with acute pulmonary embolism mice within 15 min was recorded and the survival time was recorded, to calculate the mortality rate;
(2) Determining lung coefficient: immediately after death, the bronchial and adipose tissues were dissected away from the lung tissue, and the lung tissue was washed with distilled water, and weighed for the lung weight after soaking up the water on the surface of the lung with a filter paper. The lung was taken out and weighed, to calculate the lung coefficient. Lung coefficient=Lung weight/Body weight×100%;
The lung was immediately dissected and taken out and weighed to determine the lung coefficient.

[6] = iv 0.08 + 0.325 (mg/kg + mg/kg/h)
[7] = iv 0.17 + 0.65 (mg/kg + mg/kg/h)
[8] = iv 0.35 + 1.3 (mg/kg + mg/kg/h)

## Bivalirudin: Bivalirudin for Injection, Xi'an Xintong Pharmaceutical Research Co., Ltd.; positive control thrombin inhibitor
[1]; [6]
  Common carotid arterial thrombosis Fold of prolongation: 1.79 ± 0.06
  Common carotid arterial thrombosis OT: 44.75 ± 1.53 min
[1]; [7]
  Common carotid arterial thrombosis Fold of prolongation: 2.24 ± 0.24
  Common carotid arterial thrombosis OT: 56.00 ± 6.03 min
[1]; [8]
  Common carotid arterial thrombosis Fold of prolongation: 2.23 ± 0.33
  Common carotid arterial thrombosis OT: 55.63 ± 8.21 min
[1]; iv 0.5 + 2 (mg/kg + mg/kg/h)
  Common carotid arterial thrombosis Fold of prolongation: 2.32 ± 0.23
  Common carotid arterial thrombosis OT: 58.00 ± 5.77 min
[2]; Administration 5 min
  APTT fold of prolongation: 2.4 ± 0.3
[2]; Administration 15 min
  APTT fold of prolongation: 1.4 ± 0.3
[2]; Administration for 5 min
  APTT: 50.4 ± 3.6 s
[2]; Administration for 15 min
  APTT: 30.9 ± 2.7 s
[2]; Before administration
  APTT: 21.6 ± 1.0 s
[3]; [6]
  Inferior vena cava thrombosis Inhibition percentage: 20.03%
  Inferior vena cava thrombosis Thrombus weight: 18.03 ± 1.39 mg
[3]; [7]
  Inferior vena cava thrombosis Inhibition percentage: 35.97%
  Inferior vena cava thrombosis Thrombus weight: 14.43 ± 3.84 mg
[3]; [8]
  Inferior vena cava thrombosis Inhibition percentage: 68.67%
  Inferior vena cava thrombosis Thrombus weight: 7.06 ± 4.07 mg
[3]; iv 0.5 + 2 (mg/kg + mg/kg/h)
  Inferior vena cava thrombosis Inhibition percentage: 67.79%
  Inferior vena cava thrombosis Thrombus weight: 7.26 ± 3.15 mg
Platelet aggregation; Administration for 5 min
  inhibitory rate of platelet aggregation: 5.2 ± 5.8%
Platelet aggregation; Administration for 15 min
  inhibitory rate of platelet aggregation: 4.6 ± 6.0%
[4]; Administration 5 min
  PT fold of prolongation: 3.0 ± 0.5
[4]; Administration 15 min
  PT fold of prolongation: 1.6 ± 0.2
[4]; Administration for 5 min
  PT: 18.8 ± 1.1 S
[4]; Administration for 15 min
  PT: 10.2 ± 0.7 S
[4]; Before administration
  PT: 6.4 ± 0.2 S
[5]
  Lung coefficient: 0.99 ± 0.07 g/100 g
  Number of platelets: 411.89 ± 175.52 ×10^9
  Mortality rate: 10**^## %
[5]; listed as bivalirudin
  Mortality rate: 10%
